{"source": "patent US9505798B2", "about": "“Steroid compounds as RORyt modulators and uses thereof” (New York University, priority 2010, dated 2016)", "target": "T1, VP16 (Human herpesvirus 1, UniProt P06492)", "T1 construct": "herpes simplex virus VP16 (amino acids 413 to end); expressed in transfected cells", "T1 sequence (P06492 413-490)": "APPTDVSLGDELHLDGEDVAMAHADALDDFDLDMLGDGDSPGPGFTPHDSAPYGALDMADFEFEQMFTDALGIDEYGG", "assay": "S2 cell VP16 luciferase reporter", "format": "cell-based, herpes simplex virus", "conditions": "10 μM, FIG. 1c", "source_text": "The Drosophila S2 cell line was originally purchased from Invitrogen and was maintained in Schneider's medium supplemented with 10% heat-inactivated bovine fetal calf serum and antibiotics (Invitrogen). Gal4 DNA binding domain (G4 DBD) corresponding to amino acids 1 through 147 of Gal4 protein was PCR amplified to make a fusion construct with mouse RORγt (amino acids 79 to the carboxyl terminal end) lacking its DNA binding domain. The resulting chimeric gene was subcloned into the copper inducible pMT/V5-His A vector (Invitrogen). In a similar manner, Gal4 fusion constructs were prepared with mouse RORα (amino acids 142 to end) or Drosophila DHR3 (amino acids 120 to end). Coding sequences for firefly luciferase (Promega) were PCR amplified and subcloned into pUAST vector containing Gal4 binding enhancer sequences. Renilla luciferase construct under the polIII promoter was obtained from Dr. Dasgupta's laboratory (NYU medical center). In order to generate stable cell lines, cells were co-transfected with pMT-G4 DBD-RORγt, pMT-G4 DBD-RORα, pMT-G4 DBD-DHR3, or pMT-G4 DBDVP16 and pHygro plasmids (Invitrogen) and screened for resistant colonies in the presence of hygromycin (0.3 mg/mL). […]"}
{"compound": "C[C@H]1O[C@@H](O[C@H]2[C@@H](O)C[C@H](O[C@H]3[C@@H](O)C[C@H](O[C@H]4CC[C@@]5(C)[C@H](CC[C@@H]6[C@@H]5C[C@@H](O)[C@]5(C)[C@@H](C7=CC(=O)OC7)CC[C@]65O)C4)O[C@@H]3C)O[C@@H]2C)C[C@H](O)[C@@H]1O", "note": "[Digoxin]", "values": [{"measurement": "effect on transcriptional activity of VP16", "value": "no effect"}]}
